According to the NIST ThermoML archive (doi:10.1016/j.jct.2017.03.006):
± gives the expanded uncertainty stated by the source.

Test: xn = mol fraction of the nth substance listed
Details: Liquid; for mass density: 293.15 K, Vibrating tube method; for viscosity: Concentric cylinders viscometry

Cc1ccc(C)c(C)c1 [1,2,4-trimethylbenzene] + CCCCO
mass density [kg/m3]
Details	x2 = 0	x2 = 0.1005	x2 = 0.2261	x2 = 0.2999	x2 = 0.3966	x2 = 0.5289	x2 = 0.6367	x2 = 0.7249	x2 = 0.7977	x2 = 0.9131
100 kPa	–	–	–	859.9 ± 0.7	854.5 ± 0.7	846.5 ± 0.7	839.4 ± 0.7	833.1 ± 0.7	827.5 ± 0.7	817.8 ± 0.7
1000 kPa	875.7 ± 0.7	870.8 ± 0.7	864.3 ± 0.7	860.4 ± 0.7	855 ± 0.7	847.1 ± 0.7	840 ± 0.7	833.7 ± 0.7	828.1 ± 0.7	818.4 ± 0.7
5000 kPa	878.2 ± 0.7	873.4 ± 0.7	867 ± 0.7	863.1 ± 0.7	857.8 ± 0.7	849.8 ± 0.7	842.8 ± 0.7	836.5 ± 0.7	831 ± 0.7	821.3 ± 0.7
10000 kPa	881.4 ± 0.7	876.6 ± 0.7	870.2 ± 0.7	866.4 ± 0.7	861.1 ± 0.7	853.1 ± 0.7	846.1 ± 0.7	839.9 ± 0.7	834.3 ± 0.7	824.7 ± 0.7
20000 kPa	887.3 ± 0.7	882.6 ± 0.7	876.2 ± 0.7	872.5 ± 0.7	867.2 ± 0.7	859.4 ± 0.7	852.3 ± 0.7	846.2 ± 0.7	840.6 ± 0.7	831.1 ± 0.7
30000 kPa	892.9 ± 0.7	888.3 ± 0.7	881.9 ± 0.7	878.2 ± 0.7	873 ± 0.7	865.2 ± 0.7	858.2 ± 0.7	852.1 ± 0.7	846.5 ± 0.7	837.1 ± 0.8
40000 kPa	898.2 ± 0.7	893.7 ± 0.7	887.4 ± 0.7	883.6 ± 0.7	878.5 ± 0.7	870.7 ± 0.8	863.7 ± 0.8	857.6 ± 0.8	852.1 ± 0.8	842.7 ± 0.8
50000 kPa	903.2 ± 0.7	898.7 ± 0.7	892.4 ± 0.8	888.8 ± 0.8	883.6 ± 0.8	875.8 ± 0.8	868.9 ± 0.8	862.8 ± 0.8	857.3 ± 0.8	847.9 ± 0.8
60000 kPa	908 ± 0.8	903.5 ± 0.8	897.3 ± 0.8	893.6 ± 0.8	888.6 ± 0.8	880.8 ± 0.8	873.8 ± 0.8	867.8 ± 0.8	862.3 ± 0.8	852.9 ± 0.8
70000 kPa	912.6 ± 0.8	908.3 ± 0.8	901.9 ± 0.8	898.4 ± 0.8	893.2 ± 0.8	885.5 ± 0.8	878.6 ± 0.8	872.6 ± 0.8	867 ± 0.8	857.7 ± 0.8
80000 kPa	916.9 ± 0.8	912.6 ± 0.8	906.4 ± 0.8	902.8 ± 0.8	897.6 ± 0.8	890 ± 0.8	883 ± 0.8	877 ± 0.8	871.6 ± 0.8	862.3 ± 0.8
90000 kPa	921.1 ± 0.8	916.8 ± 0.8	910.6 ± 0.8	907 ± 0.8	901.9 ± 0.8	894.2 ± 0.8	887.4 ± 0.8	881.3 ± 0.8	875.9 ± 0.8	866.6 ± 0.9
100000 kPa	925.1 ± 0.8	920.8 ± 0.8	914.7 ± 0.8	911.1 ± 0.8	906 ± 0.8	898.4 ± 0.8	891.5 ± 0.8	885.4 ± 0.9	880 ± 0.9	870.7 ± 0.9
120000 kPa	932.8 ± 0.8	928.6 ± 0.8	922.5 ± 0.8	918.9 ± 0.8	913.9 ± 0.8	906.2 ± 0.8	899.3 ± 0.9	893.3 ± 0.9	887.9 ± 0.9	878.7 ± 0.9
140000 kPa	939.9 ± 0.8	935.6 ± 0.8	929.8 ± 0.8	926 ± 0.8	921.1 ± 0.8	913.5 ± 0.9	906.7 ± 0.9	900.7 ± 0.9	895.4 ± 0.9	886.1 ± 0.9

viscosity [mPa·s], 100 kPa
Details	x2 = 0	x2 = 0.1002	x2 = 0.2327	x2 = 0.3	x2 = 0.3969	x2 = 0.53	x2 = 0.637	x2 = 0.7975	x2 = 0.9131
303.15 K	0.779 ± 0.017	0.783 ± 0.017	0.818 ± 0.017	0.857 ± 0.018	0.919 ± 0.019	1.049 ± 0.022	1.203 ± 0.025	1.559 ± 0.032	1.916 ± 0.039
313.15 K	0.692 ± 0.015	0.69 ± 0.015	0.716 ± 0.015	0.744 ± 0.016	0.787 ± 0.017	–	–	–	–
